Assay results published in US20120252741A1, “NOVEL SEMI-SYNTHETIC GLYCOPEPTIDES AS ANTIBACTERIAL AGENTS” (priority 2008, published 2012).
In brackets after ≈: the same amount, converted by molar mass. Like-named read-outs stand apart in the source and are kept apart here.

How the values were obtained:
Format in all cases: cell-based
[1] = test system: Staphylococcus epidermidis 831 (MRSE); test: MIC, broth microdilution, SE 831; details: Staphylococcus epidermidis, read-out: MIC SE 831
Experimental: (§1) Antibacterial activity in vitro is investigated by broth microdilution method in Meuller-Hinton broth as recommended by NCCLS. All strains tested are clinical isolates either sensitive or resistant to natural glycopeptides. MIC values were determined using the CLSI-recommended broth microdilution procedure (Clinical and Laboratory Standards Institute, Methods for Dilution Antimicrobial Susceptibility Tests for Bacteria That Grow Aerobically; Approved Standard-Seventh Edition.). Automated liquid handlers (Multidrop 384, Labsystems, Helsinki, Finland; Biomek 2000 and Multimek 96, Beckman Coulter, Fullerton Calif.) were used to conduct serial dilutions and liquid transfers. The MIC value for vancomycin is given for comparison. The abbreviations for organisms tested are as follow: SA 100—Staphylococcus aureus 100 (ATCC 29213); SA 757—Staphylococcus aureus 757 (MRSA); SA 2012—Staphylococcus aureus 2012 (VISA); SE 835—Staphylococcus epidermidis 835; SE 831—Staphylococcus epidermidis 831 (MRSE); EFc 101—Enterococcus faecalis 101 (ATCC 29212); EFc 848—Enterococcus faecalis 848 (VRE, Van A); EFcm 800—Enterococcus faecium 800; EFcm 752—Enterococcus faecium 752 (VRE, Van A); SPNE 1195—Streptococcus pneumoniae 1195 (ATCC 49619); SPY 712—Streptococcus pyogenes 712.

[2] = test system: Staphylococcus epidermidis 835; test: MIC, broth microdilution, SE 835; details: Staphylococcus epidermidis, 835, class symbols, read-out: MIC SE 835
Experimental: as §1

[3] = test system: Streptococcus pneumoniae 1195 (ATCC 49619); test: MIC, broth microdilution, SPNE 1195; details: Streptococcus pneumoniae, ATCC49619, class symbols, read-out: MIC S PNE 1195
Experimental: as §1

[4] = test system: Staphylococcus aureus 100 (ATCC 29213); test: MIC, broth microdilution, SA 100; details: Staphylococcus aureus, ATCC29213, class symbols, read-out: MIC SA 100
Experimental: as §1

[5] = test system: Enterococcus faecalis 101 (ATCC 29212); test: MIC, broth microdilution, EFc 101; details: Enterococcus faecalis, ATCC29212, class symbols, read-out: MIC E FC 101
Experimental: as §1

[6] = test system: Staphylococcus aureus 757 (MRSA); test: MIC, broth microdilution, SA 757; details: read-out: MIC SA 757
Experimental: as §1

[7] = test system: Enterococcus faecalis 848 (VRE, Van A); test: MIC, broth microdilution, EFc 848; details: VRE, Van A, class symbols, read-out: MIC E FC 848
Experimental: as §1

[8] = test system: Streptococcus pyogenes 712; test: MIC, broth microdilution, SPY 712; details: Streptococcus pyogenes, 712, class symbols, read-out: MIC S PYO 712
Experimental: as §1

[9] = test system: Enterococcus faecium 752 (VRE, Van A); test: MIC, broth microdilution, EFcm 752; details: VRE, Van A, class symbols, read-out: MIC E FCM 752
Experimental: as §1

[10] = test system: Staphylococcus aureus 2012 (VISA); test: MIC, broth microdilution, SA 2012; details: read-out: MIC SA 2012
Experimental: as §1

Enterococcus faecium 800 = test: MIC, broth microdilution, EFcm 800; details: Enterococcus faecium, 800, class symbols, read-out: MIC E FCM 800
Experimental: as §1

[11] = Table 2, in the presence of 0.002% Polysorbate 80, class symbols
[12] = Table 2, in the presence of 0.002% Polysorbate 80

Structure (SMILES)	MIC ([1]; Table 1, class symbols)	MIC ([2]; Table 1)	MIC ([3]; Table 1)	MIC ([4]; Table 1)	MIC ([5]; Table 1)	MIC ([6]; Table 1, class symbols)	MIC ([7]; Table 1)	MIC ([8]; Table 1)	MIC ([9]; Table 1)	MIC ([10]; Table 1, class symbols)	MIC (Enterococcus faecium 800; Table 1)	other results
CCCCOCC(=O)NC(=O)C[C@@H]1NC(=O)[C@H](NC(=O)[C@@H](CC(C)C)NC)[C@H](O)c2ccc(c(Cl)c2)Oc2cc3cc(c2O[C@@H]2O[C@H](CO)[C@@H](O)[C@H](O)[C@H]2O[C@H]2C[C@](C)(N)[C@H](O)[C@H](C)O2)Oc2ccc(cc2Cl)[C@@H](O)[C@@H]2NC(=O)[C@H](NC(=O)[C@@H]3NC1=O)c1ccc(O)c(c1)-c1c(O)cc(O)cc1[C@@H](C(=O)NC1C3CC4CC(C3)CC1C4)NC2=O (stereo partly shown) [Compound 44]	0.01 to 0.5 µg/mL (≈ 0.00589 to 0.295 µM)	0.01 to 0.5 µg/mL (≈ 0.00589 to 0.295 µM)	0.01 to 0.5 µg/mL (≈ 0.00589 to 0.295 µM)	0.5 to 1 µg/mL (≈ 0.295 to 0.589 µM)	0.5 to 1 µg/mL (≈ 0.295 to 0.589 µM)	0.5 to 1 µg/mL (≈ 0.295 to 0.589 µM)	> 16 µg/mL	0.01 to 0.5 µg/mL (≈ 0.00589 to 0.295 µM)	> 16 µg/mL	2 to 4 µg/mL (≈ 1.18 to 2.36 µM)	0.01 to 0.5 µg/mL (≈ 0.00589 to 0.295 µM)	–
CCNCCOCc1cc(OCCNCC)cc(C(=O)NC(=O)C[C@@H]2NC(=O)[C@H](NC(=O)[C@@H](CC(C)C)NC)[C@H](O)c3ccc(c(Cl)c3)Oc3cc4cc(c3O[C@@H]3O[C@H](CO)[C@@H](O)[C@H](O)[C@H]3O[C@H]3C[C@](C)(N)[C@H](O)[C@H](C)O3)Oc3ccc(cc3Cl)[C@@H](O)[C@@H]3NC(=O)[C@H](NC(=O)[C@@H]4NC2=O)c2ccc(O)c(c2)-c2c(O)cc(O)cc2[C@@H](C(=O)NC2C4CC5CC(C4)CC2C5)NC3=O)c1 (stereo partly shown) [Compound 164]	–	–	–	–	–	–	–	–	–	–	–	MIC [1, 11]: 0.01 to 0.5 µg/mL; MIC [2, 12]: 0.01 to 0.5 µg/mL; MIC [3, 12]: 0.01 to 0.5 µg/mL; MIC [4, 12]: 0.01 to 0.5 µg/mL; MIC [5, 12]: 0.01 to 0.5 µg/mL; MIC [6, 11]: 0.01 to 0.5 µg/mL; MIC [7, 12]: > 16 µg/mL; MIC [8, 12]: 0.01 to 0.5 µg/mL; MIC [9, 12]: 8 to 16 µg/mL; MIC [10, 11]: 1 to 2 µg/mL; MIC (Enterococcus faecium 800; [12]): 0.01 to 0.5 µg/mL
CCCCCCOc1ccc(S(=O)(=O)NC(=O)C[C@@H]2NC(=O)[C@H](NC(=O)[C@@H](CC(C)C)NC)[C@H](O)c3ccc(c(Cl)c3)Oc3cc4cc(c3O[C@@H]3O[C@H](CO)[C@@H](O)[C@H](O)[C@H]3O)Oc3ccc(cc3Cl)[C@@H](O)[C@@H]3NC(=O)[C@H](NC(=O)[C@@H]4NC2=O)c2ccc(O)c(c2)-c2c(O)cc(O)cc2[C@@H](C(=O)NC2C4CC5CC(C4)CC2C5)NC3=O)cc1 (stereo partly shown) [Compound 118]	1 to 2 µg/mL (≈ 0.595 to 1.19 µM)	1 to 2 µg/mL (≈ 0.595 to 1.19 µM)	0.01 to 0.5 µg/mL (≈ 0.00595 to 0.298 µM)	2 to 4 µg/mL (≈ 1.19 to 2.38 µM)	0.5 to 1 µg/mL (≈ 0.298 to 0.595 µM)	1 to 2 µg/mL (≈ 0.595 to 1.19 µM)	2 to 4 µg/mL (≈ 1.19 to 2.38 µM)	0.01 to 0.5 µg/mL (≈ 0.00595 to 0.298 µM)	1 to 2 µg/mL (≈ 0.595 to 1.19 µM)	> 16 µg/mL	0.01 to 0.5 µg/mL (≈ 0.00595 to 0.298 µM)	–

Continued, in another order:

MIC ([1]; Table 1, class symbols)	MIC ([2]; Table 1)	MIC ([3]; Table 1)	MIC ([4]; Table 1)	MIC ([5]; Table 1)	MIC ([6]; Table 1, class symbols)	MIC ([7]; Table 1)	MIC ([8]; Table 1)	MIC ([9]; Table 1)	MIC ([10]; Table 1, class symbols)	MIC (Enterococcus faecium 800; Table 1)	Structure (SMILES)	other results
0.01 to 0.5 µg/mL (≈ 0.0058 to 0.29 µM)	0.01 to 0.5 µg/mL (≈ 0.0058 to 0.29 µM)	0.01 to 0.5 µg/mL (≈ 0.0058 to 0.29 µM)	0.01 to 0.5 µg/mL (≈ 0.0058 to 0.29 µM)	0.01 to 0.5 µg/mL (≈ 0.0058 to 0.29 µM)	0.01 to 0.5 µg/mL (≈ 0.0058 to 0.29 µM)	1 to 2 µg/mL (≈ 0.58 to 1.16 µM)	0.01 to 0.5 µg/mL (≈ 0.0058 to 0.29 µM)	0.01 to 0.5 µg/mL (≈ 0.0058 to 0.29 µM)	1 to 2 µg/mL (≈ 0.58 to 1.16 µM)	0.01 to 0.5 µg/mL (≈ 0.0058 to 0.29 µM)	CCCCCCCCC(=O)NC(=O)C[C@@H]1NC(=O)[C@H](NC(=O)[C@@H](CC(C)C)NC)[C@H](O)c2ccc(c(Cl)c2)Oc2cc3cc(c2O[C@@H]2O[C@H](CO)[C@@H](O)[C@H](O)[C@H]2O[C@H]2C[C@](C)(N)[C@H](O)[C@H](C)O2)Oc2ccc(cc2Cl)[C@@H](O)[C@@H]2NC(=O)[C@H](NC(=O)[C@@H]3NC1=O)c1ccc(O)c(c1)-c1c(O)cc(O)cc1[C@@H](C(=O)NC1C3CC4CC(C3)CC1C4)NC2=O (stereo partly shown) [Compound 42]	–
0.01 to 0.5 µg/mL (≈ 0.00605 to 0.303 µM)	0.01 to 0.5 µg/mL (≈ 0.00605 to 0.303 µM)	0.01 to 0.5 µg/mL (≈ 0.00605 to 0.303 µM)	0.01 to 0.5 µg/mL (≈ 0.00605 to 0.303 µM)	0.01 to 0.5 µg/mL (≈ 0.00605 to 0.303 µM)	0.01 to 0.5 µg/mL (≈ 0.00605 to 0.303 µM)	2 to 4 µg/mL (≈ 1.21 to 2.42 µM)	0.01 to 0.5 µg/mL (≈ 0.00605 to 0.303 µM)	1 to 2 µg/mL (≈ 0.605 to 1.21 µM)	2 to 4 µg/mL (≈ 1.21 to 2.42 µM)	0.01 to 0.5 µg/mL (≈ 0.00605 to 0.303 µM)	CCCCOc1ccc(S(=O)(=O)NC(=O)C[C@@H]2NC(=O)[C@H](NC(=O)[C@@H](CC(C)C)NC)[C@H](O)c3ccc(c(Cl)c3)Oc3cc4cc(c3O[C@@H]3O[C@H](CO)[C@@H](O)[C@H](O)[C@H]3O)Oc3ccc(cc3Cl)[C@@H](O)[C@@H]3NC(=O)[C@H](NC(=O)[C@@H]4NC2=O)c2ccc(O)c(c2)-c2c(O)cc(O)cc2[C@@H](C(=O)NC2C4CC5CC(C4)CC2C5)NC3=O)cc1 (stereo partly shown) [Compound 117]	–
